Experiment [1] concerns the target Human Cbl-b (residues 40-426) (Homo sapiens (Human), UniProt Q13191). The experiment in a line: Cbl-b SPR assay. Conditions: for Fold of selectivity: C-cbl SPR Kd vs Cbl-b SPR Kd; for Kd: SPR, 20° C. Format: binding. The gist of the method: (§1)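 Values derive from a 1:1 model fitted to multicycle kinetics on captured protein (1300-1500 RU), using six 2-fold concentrations, 60 s contact and dissociation of 120-1200 s. In the chaser format, kd comes from a single-exponential fit of % site occupancy over time.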
(In general: SPR reads the build-up and loss of mass on a sensor chip optically.)

Experiment [2] has as its target Cbl-b (Homo sapiens (Human), UniProt Q13191). Briefly: Cbl-b LCK Ub TR-FRET assay (Cbl-b Lck HTRF). The class given is biochemical. Conditions: for IC50: Cbl-b LCK Ub TR-FRET, Example 121; for (fold-selectivity) Cbl-b and C-Cbl Selectivity: ratio C-cbl Lck HTRF IC50 / Cbl-b Lck HTRF IC50. The gist of the method:
(§2)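 After the ubiquitination reaction, detection mixture was added and plates incubated 20 min at room temperature before reading. IC50 values were calculated with wells lacking LCK as the low control and DMSO as the high control.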
(In general: TR-FRET usually uses a lanthanide donor and a delayed reading to cut background.)

In experiment [3] the target is c-Cbl (residues 47-435) (Homo sapiens (Human), UniProt P22681). The experiment in a line: c-Cbl SPR assay. The class given is binding. The conditions noted are these: 20° C. The gist of the method: as §1
Sequence of c-Cbl (residues 47-435) (P22681 47-435): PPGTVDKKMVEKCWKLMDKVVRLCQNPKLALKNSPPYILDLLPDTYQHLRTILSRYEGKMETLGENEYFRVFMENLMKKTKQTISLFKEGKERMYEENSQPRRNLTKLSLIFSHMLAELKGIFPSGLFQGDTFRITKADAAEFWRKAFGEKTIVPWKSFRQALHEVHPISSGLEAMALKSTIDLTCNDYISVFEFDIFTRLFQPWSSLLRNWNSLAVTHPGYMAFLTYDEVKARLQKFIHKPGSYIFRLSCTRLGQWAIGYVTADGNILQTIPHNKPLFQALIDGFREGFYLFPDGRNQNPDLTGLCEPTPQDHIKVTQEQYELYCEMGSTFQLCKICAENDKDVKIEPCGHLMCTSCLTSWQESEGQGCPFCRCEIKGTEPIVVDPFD
Experiment [4] deals with c-Cbl (Homo sapiens (Human), UniProt P22681). The experiment in a line: C-Cbl LCK Ub TR-FRET assay (C-cbl Lck HTRF). Format: biochemical. The gist of the method: as §2
Sequence of c-Cbl (P22681 47-435): as above

As usually defined, the Kd is a measure of binding affinity in units of concentration. A high value points to lower affinity. As a reminder, the IC50 is the concentration needed to halve the response being measured.

SMILES strings stand for the structures.

Sequence of Cbl-b (Q13191 40-426): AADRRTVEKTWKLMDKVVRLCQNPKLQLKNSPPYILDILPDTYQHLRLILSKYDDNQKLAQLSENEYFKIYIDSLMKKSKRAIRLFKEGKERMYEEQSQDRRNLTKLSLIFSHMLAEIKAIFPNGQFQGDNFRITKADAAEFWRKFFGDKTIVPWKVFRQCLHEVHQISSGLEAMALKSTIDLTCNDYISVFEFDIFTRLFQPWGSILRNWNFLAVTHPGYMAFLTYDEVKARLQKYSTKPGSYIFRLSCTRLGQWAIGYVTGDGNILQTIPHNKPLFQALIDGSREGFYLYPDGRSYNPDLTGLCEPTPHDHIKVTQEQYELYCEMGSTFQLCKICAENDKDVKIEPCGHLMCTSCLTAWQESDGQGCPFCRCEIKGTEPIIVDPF
Sequence of Human Cbl-b (residues 40-426) (Q13191 40-426): as above

For the compound `CO[C@H]1C[C@](c2cccc(N3Cc4c(cc(CNCC5(CO)CCC5)cc4C(F)(F)F)C3=O)c2)(c2nncn2C)C1` [Compound 489, 6-((((1-(hydroxymethyl)cyclobutyl)methyl)amino)methyl)-2-(3-((1r,3r)-3-methoxy-1-(4-methyl-4H-1,2,4-triazol-3-yl)cyclobutyl)phenyl)-4-(trifluoromethyl)isoindolin-1-one], in experiment [1], the Fold of selectivity was determined as 7.8× and the Kd amounted to 0.0062 µM. Moreover, in experiment [2], the IC50 amounted to 0.014 µM; the “(fold-selectivity) Cbl-b and C-Cbl Selectivity” value worked out at 5.3x. Also, the equilibrium dissociation constant (Kd) in experiment [3] was determined as 0.048 µM. This compound gave an IC50 in experiment [4] of 0.074 µM.

Consider `CO[C@H]1C[C@](c2cccc(N3Cc4c(cc(CN5CCCCCC5)cc4C(F)(F)F)C3=O)c2)(c2nncn2C)C1` [Compound 490, 6-(azepan-1-ylmethyl)-2-(3-((1r,3r)-3-methxoy-1-(4-methyl-4H-1,2,4-triazol-3-yl)cyclobutyl)phenyl)-4-(trifluoromethyl)isoindolin-1-one], for which the Fold of selectivity in experiment [1] is given as 14×. Also, the Kd in experiment [1] came out at 0.032 µM; in experiment [3] it was 0.48 µM. The figures for the half-maximal inhibitory concentration (IC50) in experiment [2] and in experiment [4] were 0.055 µM and 0.27 µM, respectively. In addition, the “(fold-selectivity) Cbl-b and C-Cbl Selectivity” value in experiment [2] was determined as 5.0 x.

On to `CO[C@H]1C[C@](c2cccc(N3Cc4c(cc(CNCCOC(F)F)cc4C(F)(F)F)C3=O)c2)(c2nncn2C)C1` [Compound 491, 6-(((2-(difluoromethoxy)ethyl)amino)methyl)-2-(3-((1r,3r)-3-methoxy-1-(4-methyl-4H-1,2,4-triazol-3-yl)cyclobutyl)phenyl)-4-(trifluoromethyl)isoindolin-1-one], for which, in experiment [1], the Fold of selectivity is given as 17× and binding was characterised by a dissociation constant (Kd) of 0.0029 µM. Further, in experiment [2], the IC50 was found to be 0.0084 µM; the “(fold-selectivity) Cbl-b and C-Cbl Selectivity” value came out at 4.3x. In experiment [3], binding was put at a Kd of 0.048 µM. Also, the 50% inhibitory concentration (IC50) in experiment [4] was 0.036 µM.

As to `CO[C@H]1C[C@](c2cccc(N3Cc4c(cc(CN[C@H]5[C@@H]6COC[C@@H]65)cc4C(F)(F)F)C3=O)c2)(c2nncn2C)C1` [Compound 492, 6-(((1R,5S,6r)-3-oxabicyclo[3.1.0]hexan-6-ylamino)methyl)-2-(3-((1r,3R)-3-methoxy-1-(4-methyl-4H-1,2,4-triazol-3-yl)cyclobutyl)phenyl)-4-(trifluoromethyl)isoindolin-1-one], in experiment [1], the Fold of selectivity is recorded as 15× and binding was put at a Kd of 0.012 µM. In addition, in experiment [2], the 50% inhibitory concentration (IC50) was 0.014 µM; the “(fold-selectivity) Cbl-b and C-Cbl Selectivity” value is 6.2x. Moreover, in experiment [3], the Kd came out at 0.18 µM. In experiment [4], this compound came in with an IC50 of 0.087 µM.

For `COCCC1(NCc2cc3c(c(C(F)(F)F)c2)CN(c2cccc([C@]4(c5nncn5C)C[C@H](OC)C4)c2)C3=O)CCC1` [Compound 493, 2-(3-((1r,3r)-3-methoxy-1-(4-methyl-4H-1,2,4-triazol-3-yl)cyclobutyl)phenyl)-6-(((1-(2-methoxyethyl)cyclobutyl)amino)methyl)-4-(trifluoromethyl)isoindolin-1-one], in experiment [1], the Fold of selectivity worked out at 7.8× and the Kd came out at 0.018 µM. Besides, in experiment [2], the IC50 was 0.028 µM; the “(fold-selectivity) Cbl-b and C-Cbl Selectivity” value was 8.5x. The compound also showed a Kd in experiment [3] of 0.14 µM. Moreover, the 50% inhibitory concentration (IC50) in experiment [4] was found to be 0.23 µM.

For the compound `CO[C@H]1C[C@](c2cccc(N3Cc4c(cc(CNC5CC(C(F)F)C5)cc4C(F)(F)F)C3=O)c2)(c2nncn2C)C1` (stereo partly drawn) [Compound 494, 6-(((3-(difluoromethyl)cyclobutyl)amino)methyl)-2-(3-((1r,3r)-3-methoxy-1-(4-methyl-4H-1,2,4-triazol-3-yl)cyclobutyl)phenyl)-4-(trifluoromethyl)isoindolin-1-one], in experiment [1], the Fold of selectivity is 11× and binding was characterised by a dissociation constant (Kd) of 0.0018 µM. In addition, in experiment [2], the 50% inhibitory concentration (IC50) came to 0.0083 µM; the “(fold-selectivity) Cbl-b and C-Cbl Selectivity” value turned out to be 3.1x. Further, the affinity in experiment [3], expressed as Kd, was 0.02 µM. Further, the IC50 in experiment [4] came out at 0.025 µM.

In experiment [1], `COCC1(NCc2cc3c(c(C(F)(F)F)c2)CN(c2cccc([C@]4(c5nncn5C)C[C@H](OC)C4)c2)C3=O)CCC1` [Compound 495, 2-(3-((1r,3r)-3-methoxy-1-(4-methyl-4H-1,2,4-triazol-3-yl)cyclobutyl)phenyl)-6-(((1-(methoxymethyl)cyclobutyl)amino)methyl)-4-(trifluoromethyl)isoindolin-1-one] had a Fold of selectivity of 12× and an equilibrium dissociation constant (Kd) of 0.0085 µM. In experiment [2], it took 0.018 µM to reach half-maximal inhibition (IC50); the “(fold-selectivity) Cbl-b and C-Cbl Selectivity” value stood at 6.7x. The compound also yielded a Kd in experiment [3] of 0.11 µM. Moreover, the IC50 in experiment [4] is 0.11 µM.

In experiment [1], `CO[C@H]1C[C@](c2cccc(N3Cc4c(cc(CNCC5(CF)CC5)cc4C(F)(F)F)C3=O)c2)(c2nncn2C)C1` [Compound 496, 6-((((1-(fluoromethyl)cyclopropyl)methyl)amino)meth-yl)-2-(3-((1r,3r)-3-methoxy-1-(4-methyl-4H-1,2,4-triazol-3-yl)cyclobutyl)phenyl)-4-(trifluoromethyl)isoindolin-1-one] displayed a Fold of selectivity of 12× and a Kd of 0.0061 µM. For the same compound, in experiment [2], half-maximal inhibition (IC50) was put at 0.017 µM; the “(fold-selectivity) Cbl-b and C-Cbl Selectivity” value turned out to be 5.2x. For the same compound, the Kd in experiment [3] worked out at 0.073 µM. Moreover, in experiment [4], the IC50 worked out at 0.087 µM.

`CO[C@H]1C[C@](c2cccc(N3Cc4c(cc(CNC5CC(C)(F)C5)cc4C(F)(F)F)C3=O)c2)(c2nncn2C)C1` (stereo partly drawn) [Compound 497, 6-(((3-fluoro-3-methylcyclobutyl)amino)methyl)-2-(3-((1r,3r)-3-methoxy-1-(4-methyl-4H-1,2,4-triazol-3-yl)cyclobutyl)phenyl)-4-(trifluoromethyl)isoindolin-1-one]: in experiment [1], the Fold of selectivity is on record as 14× and binding was put at a Kd of 0.0019 µM. Also, in experiment [2], the IC50 came to 0.0052 µM; the “(fold-selectivity) Cbl-b and C-Cbl Selectivity” value is given as 4.7x. Moreover, in experiment [3], binding was characterised by a dissociation constant (Kd) of 0.0266 µM. In experiment [4], this compound registered a 50% inhibitory concentration (IC50) of 0.024 µM.

In experiment [1], `CO[C@H]1C[C@](c2cccc(N3Cc4c(cc(CNC5CC6CC6C5)cc4C(F)(F)F)C3=O)c2)(c2nncn2C)C1` (stereo partly drawn) [Compound 498, 6-((bicyclo[3.1.0]hexan-3-ylamino)methyl)-2-(3-((1r,3r)-3-methoxy-1-(4-methyl-4H-1,2,4-triazol-3-yl)cyclobutyl)phenyl)-4-(trifluoromethyl)isoindolin-1-one] gave a Fold of selectivity of 16× and a dissociation constant Kd of 0.0008 µM. Moreover, in experiment [2], the IC50 amounted to 0.0041 µM; the “(fold-selectivity) Cbl-b and C-Cbl Selectivity” value was 3.6x. The compound also yielded a Kd in experiment [3] of 0.013 µM. This compound also displayed a half-inhibitory concentration (IC50) in experiment [4] of 0.015 µM.

Regarding `CO[C@H]1C[C@](c2cccc(N3Cc4c(cc(CNCCC5CCC5(F)F)cc4C(F)(F)F)C3=O)c2)(c2nncn2C)C1` (stereo partly drawn) [Compound 499, 6-(((2-(2,2-difluorocyclobutyl)ethyl)amino)methyl)-2-(3-((1r,3r)-3-methoxy-1-(4-methyl-4H-1,2,4-triazol-3-yl)cyclobutyl)phenyl)-4-(trifluoromethyl)isoindolin-1-one], in experiment [1], the Fold of selectivity was determined as 19× and binding was characterised by a dissociation constant (Kd) of 0.0037 µM. In addition, in experiment [2], the midpoint of inhibition, the IC50, lay at 0.016 µM; the “(fold-selectivity) Cbl-b and C-Cbl Selectivity” value turned out to be 5.0x. The same compound came in with an equilibrium dissociation constant (Kd) in experiment [3] of 0.079 µM. In experiment [4], this compound returned an IC50 of 0.078 µM.

As for `CO[C@H]1C[C@](c2cccc(N3Cc4c(cc(CNC5C[C@@H]6C[C@H]5CO6)cc4C(F)(F)F)C3=O)c2)(c2nncn2C)C1` (stereo partly drawn) [Compound 500, 6-((2-oxabicyclo[2.2.1]heptan-5-ylamino)methyl)-2-(3-((1r,3r)-3-methoxy-1-(4-methyl-4H-1,2,4-triazol-3-y)cyclobutyl)phenyl)-4-(trifluoromethyl)isoindolin-1-one], the Fold of selectivity in experiment [1] is given as 12×. The Kd in experiment [1] amounted to 0.01 µM; in experiment [3], 0.12 µM. Further, the IC50 amounted to 0.016 µM in experiment [2] and 0.085 µM in experiment [4]. Moreover, the “(fold-selectivity) Cbl-b and C-Cbl Selectivity” value in experiment [2] was 5.3x.

In experiment [1], `CO[C@H]1C[C@](c2cccc(N3Cc4c(cc(CNCC5(C)CC5(F)F)cc4C(F)(F)F)C3=O)c2)(c2nncn2C)C1` (stereo partly drawn) [Compound 501, 6-((((2,2-difluoro-1-methylcyclopropyl)methyl)amino)methyl)-2-(3-((1r,3r)-3-methoxy-1-(4-methyl-4H-1,2,4-triazol-3-yl)cyclobutyl)phenyl)-4-(trifluoromethyl)isoindolin-1-one] showed a Fold of selectivity of 16× and a Kd of 0.0046 µM. For the same compound, in experiment [2], the 50% inhibitory concentration (IC50) came out at 0.011 µM; the “(fold-selectivity) Cbl-b and C-Cbl Selectivity” value is listed as 4.8x. Besides, in experiment [3], the affinity, expressed as Kd, was 0.081 µM. The same compound had an IC50 in experiment [4] of 0.052 µM.

In experiment [1], `CO[C@H]1C[C@](c2cccc(N3Cc4c(cc(CN[C@@H]5C[C@H]5C)cc4C(F)(F)F)C3=O)c2)(c2nncn2C)C1` [Compound 502, 2-(3-((1r,3R)-3-methoxy-1-(4-methyl-4H-1,2,4-triazol-3-yl)cyclobutyl)phenyl)-6-((((1R,2R)-2-methylcyclopropyl)amino)methyl)-4-(trifluoromethyl)isoindolin-1-one] came in with a Fold of selectivity of 14× and a dissociation constant (Kd) of 0.005 µM. In experiment [2], the midpoint of inhibition, the IC50, lay at 0.0094 µM; the “(fold-selectivity) Cbl-b and C-Cbl Selectivity” value is reported as 4.1x. Besides, the affinity in experiment [3], expressed as Kd, was 0.069 µM. The compound also yielded a half-inhibitory concentration (IC50) in experiment [4] of 0.039 µM.
